≈ marks a conversion by molar mass, not a printed value.
Details: buffer; pH 7.4; 200.0 µM

solubility kinetic [µg/mL] | SMILES
> 41.3 | Cc1ccc(C)c(NC(=O)CCN2CCN(C)CC2)c1
> 47.5 | C=CCOCCN(C)C1=NS(=O)(=O)c2ccccc21.Cl
> 38.1 | Cc1cc(NC(=O)CSc2nnc(C)o2)no1
> 32.7 | CN(C)c1ccc(C(=O)N2CCCC2)cc1
16.7 (≈ 52 µM) | O=C(NC12CC3CC(CC(C3)C1)C2)c1cccc(OC(F)F)c1
> 49.6 | O=C(CSc1nnc(-c2ccccn2)o1)Nc1ccc(F)cc1
> 55.6 | CC1(C)CC(=O)c2sc(NS(=O)(=O)c3ccc(Cl)cc3)nc2C1
< 0.1 | COc1ccccc1Nc1nc(NCCC(C)C)nc(N)c1[N+](=O)[O-]
> 49.9 | CCC(C)NC(=O)COCc1cc(-c2ccc3c(c2)OCO3)on1 (stereo not given)
41.6 (≈ 119 µM) | COc1cccc(NC(=S)N(CCN(C)C)Cc2cccs2)c1
0.3 (≈ 0.922 µM) | COc1cc([N+](=O)[O-])ccc1NC(=S)NC(=O)CC(C)(C)C
49.2 (≈ 147 µM) | C=CCN1C(=O)C(CC(=O)O)SC1=Nc1ccc(C(=O)O)cc1 (stereo not given)
> 56.6 | O=C(COC(=O)Cn1cnc2ccccc21)Nc1ccccc1C(F)(F)F
> 36.3 | O=C1NC2=C(C(=O)CCC2)C(c2ccccc2)N1 (stereo not given)
> 54.7 | CS(=O)(=O)c1ccc(NC(=O)CN2C(=O)C3CCCCC3C2=O)cc1 (stereo not given)
30.5 (≈ 129 µM) | Cc1ccc(N=C2C(=O)Nc3ccccc32)cc1
> 51.2 | CSc1nsc(SCC(=O)Nc2cccc(C(=O)O)c2)n1
42.4 (≈ 123 µM) | COc1ccccc1NC(=O)C1CCCN1C(=O)NC1CCCCC1 (stereo not given)
0.7 (≈ 2.08 µM) | O=C(Cn1cc(C(=O)C2CC2)c2ccccc21)Nc1ccc(F)cc1
< 0.2 | Cc1ccc(Cc2c(C)c(C#N)c3[nH]c4ccccc4n3c2=O)cc1

solubility kinetic [µg/mL] | SMILES
> 40.2 | CC1(C)CC(=O)C=C(Nc2ccc(F)c(Cl)c2)C1
> 38.9 | C=C(C)C(=O)Oc1ccc(N2C(=O)CCC2=O)cc1
7.4 (≈ 30 µM) | Cc1ccc(Cc2c(C)[nH]c(=S)[nH]c2=O)cc1
< 0.3 | COc1ccc(C(=O)Nc2nc3ccccc3s2)cc1
24.8 (≈ 84.3 µM) | Cc1cccc2c1NC(=O)C21OCC(CO)([N+](=O)[O-])CO1 (stereo not given)
2.6 (≈ 9.91 µM) | Cc1cccc(C(=O)Nc2cccc3cccnc23)c1
21.2 (≈ 62.5 µM) | COc1ccccc1NC(=O)CC(c1ccc(F)cc1)c1ccco1 (stereo not given)
< 0.7 | CN1C(=O)/C(=C\c2cccc(OCc3ccccc3)c2)SC1=S
> 45.4 | CC12CN3CC(C)(CN(C1)C3c1ccc3c(c1)OCO3)C2O (stereo not given)
39.9 (≈ 113 µM) | CS(=O)(=O)N1CCN(c2ccc([N+](=O)[O-])cc2C(F)(F)F)CC1
49 (≈ 140 µM) | O=S(=O)(CCN1CCN(c2ccccn2)CC1)c1ccc(F)cc1
> 43 | Cc1ccc(N(CCO)C(=S)Nc2ccccc2)cc1
> 46 | CC(=O)NC(C)Cc1cn(Cc2ccccc2)c2ccccc12 (stereo not given)
5.2 (≈ 16.9 µM) | Cc1cc2cc(CNC(=O)COc3ccccc3)ccc2n1C
0.5 (≈ 1.59 µM) | Cc1ccc(C(=O)N(CC(C)C)c2nc3ccccc3s2)o1
> 39.8 | COc1ccc(NC(=S)NC2CCCCC2)cn1
3.2 (≈ 10.6 µM) | CCCN1C(=O)c2ccccc2NC1c1ccc(Cl)cc1 (stereo not given)
> 42.3 | O=C(NCCN1CCCCC1)Nc1ccc(Cl)cc1
> 46.3 | COc1cccc(CN(C)C(=O)Cc2c[nH]c3ccccc23)c1
> 44.5 | COc1ccc(CNC(=O)N2CCc3ccccc3C2)cc1

solubility kinetic [µg/mL] | SMILES
> 41 | Cc1csc(SCC(=O)NC(=O)NC(C)C)n1
5.9 (≈ 19.8 µM) | COc1cccc(-n2cnc3sc4c(c3c2=O)CCC4)c1
18 (≈ 49.9 µM) | Cc1c(Cl)cccc1NC(=O)CNC(=O)c1ccc2c(c1)OCCO2
> 37 | Cc1cccc(C)c1NC(=O)C(C)N1CCCC1 (stereo not given)
< 0.2 | CC(C)(C)Nc1ncnc2sc(-c3ccccc3)cc12
2.5 (≈ 8.73 µM) | Cc1cc(C(=O)COc2ccccc2C(N)=O)c(C)n1C
< 0.4 | CCOC(=O)c1sc(=NC(=O)/C=C/c2ccccc2)n(C)c1C
6.9 (≈ 27 µM) | Cc1ccc(C(=O)O/N=C(\N)c2ccccn2)cc1
44.8 (≈ 140 µM) | CCc1ccccc1NS(=O)(=O)c1cccc2nsnc12
5.1 (≈ 15.6 µM) | Cc1cc(C=O)c(C)n1-c1ccc(NC2CCCC2)c([N+](=O)[O-])c1
11.9 (≈ 44 µM) | CSc1ccc(C2N=C(c3ccccc3)NO2)cc1 (stereo not given)
15.8 (≈ 53.7 µM) | Cc1cc(C(=O)NCc2ccc(F)cc2)c2ccccc2n1
> 57.7 | Cc1ccc(S(=O)(=O)Nc2nc3ccccc3nc2N2CCOCC2)cc1
> 36.9 | O=C(NC1CC1)C1CCN(c2ncccn2)CC1
2.6 (≈ 7.53 µM) | Cc1cccn2c(NC(=O)c3ccccc3F)c(-c3ccccc3)nc12
> 40.7 | O=C(NCc1cccnc1)Nc1ccc2c(c1)OCO2
> 30.5 | CCO/C(C)=C1/SC(=S)NC1=O
3.5 (≈ 12.6 µM) | Cc1ccc2c(c1)cc(C(=O)NCc1ccccc1)n2C
> 47.1 | Nc1nc(NC(=O)c2ccccc2Cl)nn1-c1ccccc1

SMILES | solubility kinetic [µg/mL]
CCN1CCN(C(=O)NC2CCCCC2)CC1.O=C(O)C(=O)O | > 49.4

From PubChem BioAssay AID1996
